According to paper PMC5218480 (PLoS ONE, 2017):

System: MV-4-11 cells
Experiment: Gene expression microarray analysis (Affymetrix PrimeView) and GSEA
Assay type: cell-based, human
Design: RFU PODN (11730768_x_at) / Fold change /veh PODN (11730768_x_at) / RFU LINC00158 (11744669_a_at) / Fold change /veh LINC00158 (11744669_a_at) / RFU DUSP10 (11751237_a_at) / Fold change /veh DUSP10 (11751237_a_at) / RFU ID3 (11757404_x_at) / Fold change /veh ID3 (11757404_x_at) / RFU PLEKHG5 (11737974_s_at) / Fold change /veh PLEKHG5 (11737974_s_at) / RFU LRRC4B (11730491_at) / Fold change /veh LRRC4B (11730491_at) / RFU GIMAP4 (11747438_a_at) / Fold change /veh GIMAP4 (11747438_a_at) / RFU KRT8 (11758183_x_at) / Fold change /veh KRT8 (11758183_x_at) / RFU CNN1 (11734310_a_at) / Fold change /veh CNN1 (11734310_a_at) / RFU VPS37D (11726825_at) / Fold change /veh VPS37D (11726825_at) / RFU C10orf10 (11716522_x_at) / Fold change /veh C10orf10 (11716522_x_at) / RFU KIR2DL2 /// KIR2DL4 /// KIR2DL5A /// KIR2DL5B /// KIR2DS1 /// KIR2DS2 /// KIR2DS3 /// KIR2DS4 /// KIR3DL3 /// KIR3DL3 /// KIR3DS1 (11738374_at) / Fold change /veh KIR2DL2 /// KIR2DL4 /// KIR2DL5A /// KIR2DL5B /// KIR2DS1 /// KIR2DS2 /// KIR2DS3 /// KIR2DS4 /// KIR3DL3 /// KIR3DL3 /// KIR3DS1 (11738374_at) / RFU C1QL1 (11718748_at) / Fold change /veh C1QL1 (11718748_at) / RFU TMPRSS4 (11747572_a_at) / Fold change /veh TMPRSS4 (11747572_a_at) / RFU HAMP (11756126_x_at) / Fold change /veh HAMP (11756126_x_at) / RFU RNFT2 (11725882_a_at) / Fold change /veh RNFT2 (11725882_a_at) / RFU NR4A2 (11747474_a_at) / Fold change /veh NR4A2 (11747474_a_at) / RFU ABCC12 (11746883_a_at) / Fold change /veh ABCC12 (11746883_a_at) / RFU TMEM136 (11760407_x_at) / Fold change /veh TMEM136 (11760407_x_at) / RFU CLDN22 /// WWC2 (11732394_at) / Fold change /veh CLDN22 /// WWC2 (11732394_at) / RFU HLA-DPB1 (11760878_x_at) / Fold change /veh HLA-DPB1 (11760878_x_at) / RFU SPINT1 (11716480_a_at) / Fold change /veh SPINT1 (11716480_a_at) / RFU GAP43 (11754022_s_at) / Fold change /veh GAP43 (11754022_s_at) / RFU A4GNT (11735810_at) / Fold change /veh A4GNT (11735810_at) / RFU PRB3 (11715151_x_at) / Fold change /veh PRB3 (11715151_x_at) / RFU TUBB4B (11761932_at) / Fold change /veh TUBB4B (11761932_at) / RFU CAPN14 (11732068_a_at) / Fold change /veh CAPN14 (11732068_a_at) / RFU TMCC2 (11721928_a_at) / Fold change /veh TMCC2 (11721928_a_at) / RFU IRGQ (11745062_a_at) / Fold change /veh IRGQ (11745062_a_at) / RFU FAM174B (11720279_a_at) / Fold change /veh FAM174B (11720279_a_at) / RFU TMPRSS4 (11748680_a_at) / Fold change /veh TMPRSS4 (11748680_a_at) / RFU FAM212B (11763350_a_at) / Fold change /veh FAM212B (11763350_a_at) / RFU PLEKHG5 (11743358_a_at) / Fold change /veh PLEKHG5 (11743358_a_at) / RFU ZSCAN30 (11745921_a_at) / Fold change /veh ZSCAN30 (11745921_a_at) / RFU CMKLR1 (11741424_a_at) / Fold change /veh CMKLR1 (11741424_a_at) / RFU LOC101060620 /// MAPK8IP1 (11723275_at) / Fold change /veh LOC101060620 /// MAPK8IP1 (11723275_at) / RFU SPTSSB (11747773_x_at) / Fold change /veh SPTSSB (11747773_x_at) / RFU PRSS12 (11739890_at) / Fold change /veh PRSS12 (11739890_at) / RFU BIN1 (11741810_x_at) / Fold change /veh BIN1 (11741810_x_at) / RFU WNT11 (11732464_a_at) / Fold change /veh WNT11 (11732464_a_at) / RFU C10orf10 (11716521_a_at) / Fold change /veh C10orf10 (11716521_a_at) / RFU C5orf56 (11738089_at) / Fold change /veh C5orf56 (11738089_at) / RFU CYB561 (11721691_x_at) / Fold change /veh CYB561 (11721691_x_at) / RFU ANKRD19P (11752326_a_at) / Fold change /veh ANKRD19P (11752326_a_at) / RFU OR2T12 /// OR2T33 /// OR2T8 (11738714_s_at) / Fold change /veh OR2T12 /// OR2T33 /// OR2T8 (11738714_s_at) / RFU VCAN (11748164_a_at) / Fold change /veh VCAN (11748164_a_at) / RFU JSRP1 (11732532_at) / Fold change /veh JSRP1 (11732532_at) / RFU KRTAP10-11 (11738290_x_at) / Fold change /veh KRTAP10-11 (11738290_x_at) / RFU MYO3A (11730013_a_at) / Fold change /veh MYO3A (11730013_a_at) / RFU EBF3 (11725865_a_at) / Fold change /veh EBF3 (11725865_a_at) / RFU CAMK2N1 (11719241_x_at) / Fold change /veh CAMK2N1 (11719241_x_at) / RFU C5orf56 (11738088_a_at) / Fold change /veh C5orf56 (11738088_a_at) / RFU OLFML3 (11715873_a_at) / Fold change /veh OLFML3 (11715873_a_at) / RFU LOC100653217 /// NTM (11731650_a_at) / Fold change /veh LOC100653217 /// NTM (11731650_a_at) / RFU MAPK11 (11762145_a_at) / Fold change /veh MAPK11 (11762145_a_at) / RFU FIZ1 (11724087_x_at) / Fold change /veh FIZ1 (11724087_x_at) / RFU OASL (11726364_x_at) / Fold change /veh OASL (11726364_x_at) / RFU SOX15 (11748057_x_at) / Fold change /veh SOX15 (11748057_x_at) / RFU CD79A (11719716_a_at) / Fold change /veh CD79A (11719716_a_at) / RFU HIST1H1D (11736915_at) / Fold change /veh HIST1H1D (11736915_at) / RFU CASKIN2 (11723855_a_at) / Fold change /veh CASKIN2 (11723855_a_at) / RFU LOC730098 (11760151_x_at) / Fold change /veh LOC730098 (11760151_x_at) / RFU OR4N2 (11742367_at) / Fold change /veh OR4N2 (11742367_at) / RFU PRRT2 (11749266_a_at) / Fold change /veh PRRT2 (11749266_a_at) / RFU SNX32 (11753110_a_at) / Fold change /veh SNX32 (11753110_a_at) / RFU CDHR5 (11726645_a_at) / Fold change /veh CDHR5 (11726645_a_at) / RFU RCAN1 (11760418_a_at) / Fold change /veh RCAN1 (11760418_a_at) / RFU FAM167A (11723789_a_at) / Fold change /veh FAM167A (11723789_a_at) / RFU FAM26E (11764081_at) / Fold change /veh FAM26E (11764081_at) / RFU ISYNA1 (11749810_s_at) / Fold change /veh ISYNA1 (11749810_s_at) / RFU ACY1 (11761880_at) / Fold change /veh ACY1 (11761880_at) / RFU 11764098_at / Fold change /veh 11764098_at / RFU SAMD14 (11745864_x_at) / Fold change /veh SAMD14 (11745864_x_at) / RFU NPB (11741838_a_at) / Fold change /veh NPB (11741838_a_at) / RFU TMPRSS6 (11731388_a_at) / Fold change /veh TMPRSS6 (11731388_a_at) / RFU KRTAP10-2 (11738614_at) / Fold change /veh KRTAP10-2 (11738614_at) / RFU ARHGAP8 /// PRR5-ARHGAP8 (11727945_x_at) / Fold change /veh ARHGAP8 /// PRR5-ARHGAP8 (11727945_x_at) / RFU KRTAP5-7 /// NADSYN1 (11734609_at) / Fold change /veh KRTAP5-7 /// NADSYN1 (11734609_at) / RFU RASL12 (11751679_a_at) / Fold change /veh RASL12 (11751679_a_at) / RFU CDKN2B (11736163_a_at) / Fold change /veh CDKN2B (11736163_a_at) / RFU PRF1 (11729649_at) / Fold change /veh PRF1 (11729649_at) / RFU, ZNF638 /// ZNF638-IT1 / Fold change vs veh, ZNF638 /// ZNF638-IT1 / RFU, PANK3 / Fold change vs veh, PANK3 / RFU, SH3YL1 / Fold change vs veh, SH3YL1 / RFU, ZEB2 / Fold change vs veh, ZEB2 / RFU, NRIP1 / Fold change vs veh, NRIP1 / RFU, PTTG1IP / Fold change vs veh, PTTG1IP / RFU, CAPN2 / Fold change vs veh, CAPN2 / RFU, MED14 / Fold change vs veh, MED14 / RFU, SNORA58 / Fold change vs veh, SNORA58 / RFU, C1orf63 / Fold change vs veh, C1orf63 / RFU, LRRFIP1 / Fold change vs veh, LRRFIP1 / RFU, NDUFAF7 / Fold change vs veh, NDUFAF7 / RFU, SLC12A2 / Fold change vs veh, SLC12A2 / RFU, IBTK / Fold change vs veh, IBTK / RFU, ESF1 / Fold change vs veh, ESF1 / Fold change vs veh, TMEM50B / RFU, TAOK1 / Fold change vs veh, TAOK1 / RFU, ACBD3 / Fold change vs veh, ACBD3 / RFU, TMA16 / Fold change vs veh, TMA16 / RFU, RWDD3 / Fold change vs veh, RWDD3 / RFU, BCAT1 / Fold change vs veh, BCAT1 / RFU, EDEM3 / Fold change vs veh, EDEM3 / RFU, TMEM33 / Fold change vs veh, TMEM33 / RFU, WDR75 / Fold change vs veh, WDR75 / RFU, AHCTF1 / Fold change vs veh, AHCTF1 / RFU, TFRC / Fold change vs veh, TFRC / RFU, ZDHHC17 / Fold change vs veh, ZDHHC17 / RFU, NOM1 / Fold change vs veh, NOM1 / RFU, ARL8B / Fold change vs veh, ARL8B / RFU, ZBTB11 / Fold change vs veh, ZBTB11 / RFU, TAMM41 / Fold change vs veh, TAMM41 / RFU, KIAA1704 /// LOC100996395 / Fold change vs veh, KIAA1704 /// LOC100996395 / RFU, ING1 / Fold change vs veh, ING1 / RFU, TRMT61B / Fold change vs veh, TRMT61B / RFU, FUBP3 / Fold change vs veh, FUBP3 / RFU, TP53 / Fold change vs veh, TP53 / RFU, TNKS2 / Fold change vs veh, TNKS2 / RFU, ZFP14 / Fold change vs veh, ZFP14 / RFU, ACTR2 / Fold change vs veh, ACTR2 / RFU, PPP3R1 / Fold change vs veh, PPP3R1 / RFU, PIK3R1 / Fold change vs veh, PIK3R1 / RFU, HNRNPA1 / Fold change vs veh, HNRNPA1 / RFU, RNF170 / Fold change vs veh, RNF170 / RFU, ZNF28 / Fold change vs veh, ZNF28 / RFU, RNGTT / Fold change vs veh, RNGTT / RFU, OGT / Fold change vs veh, OGT / RFU, BRD1 / Fold change vs veh, BRD1 / RFU, MARS / Fold change vs veh, MARS / RFU, ZNF655 / Fold change vs veh, ZNF655 / RFU, FAHD1 / Fold change vs veh, FAHD1 / RFU, BDP1 / Fold change vs veh, BDP1 / RFU, LRRCC1 / Fold change vs veh, LRRCC1 / RFU, ARID1A / Fold change vs veh, ARID1A / RFU, ZNF146 / Fold change vs veh, ZNF146 / RFU, ZNF330 / Fold change vs veh, ZNF330 / RFU, GPN3 / Fold change vs veh, GPN3 / RFU, C9orf123 / Fold change vs veh, C9orf123 / RFU, N4BP2L2 / Fold change vs veh, N4BP2L2 / RFU, ARFIP1 / Fold change vs veh, ARFIP1 / RFU, FAM179B / Fold change vs veh, FAM179B / RFU, BCL10 / Fold change vs veh, BCL10 / RFU, UHRF1BP1L / Fold change vs veh, UHRF1BP1L / RFU, BET1 / Fold change vs veh, BET1 / RFU, CNOT2 / Fold change vs veh, CNOT2 / RFU, ZNF268 / Fold change vs veh, ZNF268 / Fold change vs veh, ZNF507 / RFU, DGCR2 / Fold change vs veh, DGCR2 / RFU, WDSUB1 / Fold change vs veh, WDSUB1 / Fold change vs veh, HSP90B1 /// MIR3652 / RFU, ADSS / Fold change vs veh, ADSS / RFU, GK / Fold change vs veh, GK / RFU, ZNF148 / Fold change vs veh, ZNF148 / RFU, TAF9 / Fold change vs veh, TAF9 / RFU, SLC1A5 / Fold change vs veh, SLC1A5 / RFU, SLMO2 / Fold change vs veh, SLMO2 / RFU, ABCC4 / Fold change vs veh, ABCC4 / RFU, LOC101060439 /// RAP1B / Fold change vs veh, LOC101060439 /// RAP1B / RFU, RFX7 / Fold change vs veh, RFX7 / RFU, GTPBP10 / Fold change vs veh, GTPBP10 / RFU, CNEP1R1 / Fold change vs veh, CNEP1R1 / RFU, BIVM-ERCC5 /// ERCC5 / Fold change vs veh, BIVM-ERCC5 /// ERCC5 / RFU, ILF3 / Fold change vs veh, ILF3 / RFU 11762660_at / Fold change /veh 11762660_at / RFU VCAN (11757783_s_at) / Fold change /veh VCAN (11757783_s_at) / RFU DDX43 (11728927_at) / Fold change /veh DDX43 (11728927_at) / RFU KRT8 (11758188_x_at) / Fold change /veh KRT8 (11758188_x_at) / RFU NKD1 (11759106_at) / Fold change /veh NKD1 (11759106_at) / RFU SRD5A1 (11742802_a_at) / Fold change /veh SRD5A1 (11742802_a_at) / RFU TPSAB1 /// TPSB2 (11721975_s_at) / Fold change /veh TPSAB1 /// TPSB2 (11721975_s_at) / RFU GSTM3 (11746129_a_at) / Fold change /veh GSTM3 (11746129_a_at) / RFU IL23R (11737362_x_at) / Fold change /veh IL23R (11737362_x_at) / RFU TMEM51 (11727254_a_at) / Fold change /veh TMEM51 (11727254_a_at) / RFU PIWIL2 (11732686_x_at) / Fold change /veh PIWIL2 (11732686_x_at) / RFU ORM1 (11744905_x_at) / Fold change /veh ORM1 (11744905_x_at) / RFU CCDC152 (11743942_at) / Fold change /veh CCDC152 (11743942_at) / RFU ECM1 (11717891_a_at) / Fold change /veh ECM1 (11717891_a_at) / RFU IL23R (11748794_a_at) / Fold change /veh IL23R (11748794_a_at) / RFU TNFAIP8L3 (11732012_x_at) / Fold change /veh TNFAIP8L3 (11732012_x_at) / RFU MBOAT4 (11741988_at) / Fold change /veh MBOAT4 (11741988_at) / RFU 11764193_at / Fold change /veh 11764193_at / RFU TMEM53 (11763286_at) / Fold change /veh TMEM53 (11763286_at) / RFU MAGEB2 (11727129_at) / Fold change /veh MAGEB2 (11727129_at) / RFU TMEM200A (11744735_a_at) / Fold change /veh TMEM200A (11744735_a_at) / RFU CCDC152 (11751479_a_at) / Fold change /veh CCDC152 (11751479_a_at) / RFU FAM211A (11726209_a_at) / Fold change /veh FAM211A (11726209_a_at) / RFU RGS16 (11746705_a_at) / Fold change /veh RGS16 (11746705_a_at) / RFU VCAN (11755009_s_at) / Fold change /veh VCAN (11755009_s_at) / RFU RHOB (11743442_s_at) / Fold change /veh RHOB (11743442_s_at) / RFU RGS16 (11720943_a_at) / Fold change /veh RGS16 (11720943_a_at) / RFU RGS16 (11720944_at) / Fold change /veh RGS16 (11720944_at) / RFU, VPS4B / Fold change vs veh, VPS4B / RFU, CREB1 / Fold change vs veh, CREB1 / RFU, DNAJC13 / Fold change vs veh, DNAJC13 / RFU, GNAQ / Fold change vs veh, GNAQ / RFU, CDK5R1 / Fold change vs veh, CDK5R1 / RFU, ZRANB3 / Fold change vs veh, ZRANB3 / RFU, CUL4A / Fold change vs veh, CUL4A / RFU, CCNY / Fold change vs veh, CCNY / RFU, UFL1 / Fold change vs veh, UFL1 / RFU, COG3 / Fold change vs veh, COG3 / RFU, DIAPH2 / Fold change vs veh, DIAPH2 / RFU, SKA2 / Fold change vs veh, SKA2 / RFU, AFF3 / Fold change vs veh, AFF3 / RFU, LMF1 / Fold change vs veh, LMF1 / RFU, IPO11 / Fold change vs veh, IPO11 / RFU, DFFB / Fold change vs veh, DFFB / RFU, FOXP1 / Fold change vs veh, FOXP1 / RFU, CARD8 / Fold change vs veh, CARD8 / RFU, STRN3 / Fold change vs veh, STRN3 / RFU, ADK / Fold change vs veh, ADK / RFU, RASSF2 / Fold change vs veh, RASSF2 / RFU, WIPF1 / Fold change vs veh, WIPF1 / RFU, LARP1B / Fold change vs veh, LARP1B / RFU, RASA1 / Fold change vs veh, RASA1 / RFU, RB1 / Fold change vs veh, RB1 / RFU, PPFIA1 / Fold change vs veh, PPFIA1 / RFU, MAT2A / Fold change vs veh, MAT2A / RFU, CCT5 / Fold change vs veh, CCT5 / RFU, WDR92 / Fold change vs veh, WDR92 / RFU, CUX1 / Fold change vs veh, CUX1 / RFU, TTC7A / Fold change vs veh, TTC7A / RFU, TMEM135 / Fold change vs veh, TMEM135 / RFU, DEPTOR / Fold change vs veh, DEPTOR / RFU, CPM / Fold change vs veh, CPM / RFU, DNAJB6 / Fold change vs veh, DNAJB6 / RFU, CACNA2D3 / Fold change vs veh, CACNA2D3 / RFU, DTX4 / Fold change vs veh, DTX4 / RFU, TFCP2 / Fold change vs veh, TFCP2 / RFU, GMCL1 /// GMCL1P1 / Fold change vs veh, GMCL1 /// GMCL1P1 / RFU, AEBP2 / Fold change vs veh, AEBP2 / RFU, SNHG1 /// SNORD22 /// SNORD25 /// SNORD26 /// SNORD27 /// SNORD28 /// SNORD29 /// SNORD31 / Fold change vs veh, SNHG1 /// SNORD22 /// SNORD25 /// SNORD26 /// SNORD27 /// SNORD28 /// SNORD29 /// SNORD31 / Fold change (Aza/veh), C12orf56 (ProbeSet 11735607_a_at) / Fold change (ACY-1035/veh), C12orf56 (ProbeSet 11735607_a_at) / Fold change (Aza/veh), FGFR1OP (ProbeSet 11751329_s_at) / Fold change (ACY-1035/veh), FGFR1OP (ProbeSet 11751329_s_at) / Fold change (Aza/veh), VPS36 (ProbeSet 11739960_a_at) / Fold change (ACY-1035/veh), VPS36 (ProbeSet 11739960_a_at) / RFU SYPL1 (11715823_x_at) / Fold change /veh SYPL1 (11715823_x_at) / RFU IGFBP7 (11715501_s_at) / Fold change /veh IGFBP7 (11715501_s_at) / RFU REEP3 (11722064_at) / Fold change /veh REEP3 (11722064_at) / RFU IGLL1 (11728026_x_at) / Fold change /veh IGLL1 (11728026_x_at): dose or concentration left out as unconfirmed
Settings: MV-4-11 cells, 48 hours

Structure (SMILES): Nc1ccc(-c2cccs2)cc1NC(=O)c1ccc2c(c1)cc(C1CC1)n2CCN1CCOCC1 [ACY-1035]
- RFU RCAN1 (11760418_a_at): 20.19 RFU
